In US20210322426A1, “METHODS OF TREATING CANCER WITH PI3K ALPHA INHIBITORS AND METFORMIN” (Genentech, Inc., priority 2018, published 2021):
Like-named read-outs stand apart in the source and are kept apart here.

Tests used:
[1] = tested on: PIK3CA-mutant breast cancer cell lines; test: proliferation and apoptosis of PIK3CA-mutant breast cancer cell lines; type: cell-based; conditions: nonclinical studies
[2] = tested on: human breast xenograft models harboring PIK3CA mutations; test: tumor growth in human breast xenograft models harboring PIK3CA mutations; type: in vivo
[3] = tested on: PI3K-pathway markers pAKT, pPRAS40, pS6; test: downstream PI3K-pathway markers (pAKT, pPRAS40, pS6)
[4] = target: Class I PI3K alpha isoform (Homo sapiens, UniProt P42336); conditions: PI3K alpha versus PI3K beta, delta and gamma isoforms; cited from earlier work
[5] = tested on: tumor cells bearing mutant PI3K; conditions: mutant PI3K over wild type (WT) PI3K cells; cited from earlier work
[6] = tested on: mutant p110 alpha; test: degradation of mutant p110 alpha (nonclinical studies)
[7] = tested on: patients with HR+/HER2- breast cancer; conditions: in combination with letrozole; cited from earlier work
[8] = tested on: patients with HR+/HER2- breast cancer; conditions: in combination with fulvestrant; cited from earlier work

Sequence of Class I PI3K alpha isoform (P42336 whole entry, canonical isoform): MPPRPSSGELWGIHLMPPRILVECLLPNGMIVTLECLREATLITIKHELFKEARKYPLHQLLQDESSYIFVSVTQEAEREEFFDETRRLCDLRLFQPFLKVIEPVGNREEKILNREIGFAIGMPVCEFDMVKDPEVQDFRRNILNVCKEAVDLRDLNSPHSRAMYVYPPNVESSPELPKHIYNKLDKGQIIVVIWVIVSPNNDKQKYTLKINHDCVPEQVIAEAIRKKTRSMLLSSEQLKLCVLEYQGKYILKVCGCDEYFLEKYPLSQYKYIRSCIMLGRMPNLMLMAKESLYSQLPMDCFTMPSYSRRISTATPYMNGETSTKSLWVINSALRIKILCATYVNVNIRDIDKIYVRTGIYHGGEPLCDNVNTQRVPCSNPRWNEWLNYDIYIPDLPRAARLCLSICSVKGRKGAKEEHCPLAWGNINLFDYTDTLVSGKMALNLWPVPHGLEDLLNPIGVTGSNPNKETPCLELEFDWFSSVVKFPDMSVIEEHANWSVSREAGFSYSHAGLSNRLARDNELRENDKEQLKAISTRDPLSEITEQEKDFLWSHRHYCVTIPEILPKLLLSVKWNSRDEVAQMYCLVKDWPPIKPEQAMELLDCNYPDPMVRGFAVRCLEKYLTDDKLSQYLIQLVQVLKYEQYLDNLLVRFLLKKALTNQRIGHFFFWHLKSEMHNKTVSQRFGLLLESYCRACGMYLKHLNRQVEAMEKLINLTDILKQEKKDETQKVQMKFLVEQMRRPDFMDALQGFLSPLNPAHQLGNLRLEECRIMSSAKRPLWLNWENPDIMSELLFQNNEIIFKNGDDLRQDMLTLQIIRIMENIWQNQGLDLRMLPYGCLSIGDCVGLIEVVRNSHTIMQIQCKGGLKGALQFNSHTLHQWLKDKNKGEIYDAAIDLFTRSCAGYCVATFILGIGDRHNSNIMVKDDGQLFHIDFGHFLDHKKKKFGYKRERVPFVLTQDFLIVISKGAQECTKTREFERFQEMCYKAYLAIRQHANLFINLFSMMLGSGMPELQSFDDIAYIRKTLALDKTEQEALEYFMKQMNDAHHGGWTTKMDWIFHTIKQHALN
Sequence of Class I PI3K alpha isoform (P27986 whole entry partner, canonical isoform): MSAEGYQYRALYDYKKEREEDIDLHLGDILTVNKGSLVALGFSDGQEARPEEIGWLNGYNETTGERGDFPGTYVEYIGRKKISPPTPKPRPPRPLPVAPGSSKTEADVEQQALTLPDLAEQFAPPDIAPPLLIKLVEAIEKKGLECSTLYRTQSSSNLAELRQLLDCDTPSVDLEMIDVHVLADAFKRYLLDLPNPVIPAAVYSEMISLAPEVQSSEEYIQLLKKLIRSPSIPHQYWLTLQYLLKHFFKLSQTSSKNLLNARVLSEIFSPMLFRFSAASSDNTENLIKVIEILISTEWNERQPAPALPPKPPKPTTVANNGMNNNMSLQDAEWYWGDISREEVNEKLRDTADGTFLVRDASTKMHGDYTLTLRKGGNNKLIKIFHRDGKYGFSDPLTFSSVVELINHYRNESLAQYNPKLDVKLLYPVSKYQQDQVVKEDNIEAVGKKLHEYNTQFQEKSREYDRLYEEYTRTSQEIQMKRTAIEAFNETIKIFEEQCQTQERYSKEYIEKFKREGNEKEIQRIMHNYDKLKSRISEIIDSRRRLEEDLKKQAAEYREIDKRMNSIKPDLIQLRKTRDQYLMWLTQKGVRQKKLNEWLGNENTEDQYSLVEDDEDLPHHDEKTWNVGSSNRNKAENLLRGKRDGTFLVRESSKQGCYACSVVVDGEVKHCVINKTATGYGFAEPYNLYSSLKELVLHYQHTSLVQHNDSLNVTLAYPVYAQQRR

Row | SMILES | apoptosis of PIK3CA-mutant breast cancer cell lines [1] | proliferation of PIK3CA-mutant breast cancer cell lines [1] | tumor growth in xenograft models [2] | downstream PI3K-pathway markers [3] | fold less potent biochemical inhibition for other Class I PI3K isoforms [4] | potency in mutant PI3K tumor cells over wild type PI3K cells [5] | degradation of mutant p110 alpha [6] | patients requiring 1 dose reduction of palbociclib [7] | patients with cycle delays [7] | patients with dose holds [7] | patients requiring 1 dose reduction of palbociclib [8] | patients with cycle delays [8] | patients with dose holds [8]
1 | C[C@H](Nc1ccc2c(c1)OCCn1cc(N3C(=O)OC[C@H]3C(F)F)nc1-2)C(N)=O [GDC-0077, (S)-2-((2-((S)-4-(difluoromethyl)-2-oxooxazolidin-3-yl)-5,6-dihydrobenzo[f]imidazo[1,2-d][1,4]oxazepin-9-yl)amino)propanamide] | induces apoptosis | inhibits proliferation | inhibits tumor growth | reduces downstream PI3K-pathway markers | > 300 fold | increased potency | specifically degrades mutant p110 alpha | – | – | – | – | – | –
2 | CC(=O)c1c(C)c2cnc(Nc3ccc(N4CCNCC4)cn3)nc2n(C2CCCC2)c1=O [palbociclib, 6-acetyl-8-cyclopentyl-5-methyl-2-(5-(piperazin-1-yl)pyridin-2-ylamino)pyrido[2,3-d]pyrimidin-7(8H)-one] | – | – | – | – | – | – | – | 36% | 68% | 70% | 34% | 36% | 54%
